In one test the test system is mitochondria or chloroplast of Chlamydomonas reinhardtii. As to the kind of experiment: Subcellular localization of Venus reporter by epifluorescence microscopy (manual targeting assignment). The class given is cell-based. As to conditions: manual targeting assignment of the Venus reporter construct in Chlamydomonas: Neither / Mitochondria / Chloroplast / Dual, (partial) = partial targeting. The text has this: In a bid to keep peptidase recognition sites intact, C-terminal elements were designed to start 10 residues upstream of the cleavage site, even though this slightly truncates TP helices. Peptides carrying the 15-amino-acid cTP N-terminus (cTP-N) will be denoted ^cP. Similarly, peptides with C-terminal elements from RCA1-cTP (cTP-C) or CAG2-mTP (mTP-C) will be denoted P^c or P^m, respectively. Peptide variants are used to drive the subcellular localization of a Venus fluorescent reporter protein, which was assessed using fluorescence microscopy; in Figure 2, an executive overview of observed Venus localization is presented for all constructs. […] Here, we use automated image segmentation to validate our subcellular localization assessment (Supplemental Figure 2, Supplemental text). […] The reader will be asked to return to Figure 2 throughout, with Figures 3 and 4 providing selected micrographs as examples highlighting particular points of interest.
Chlamydomonas TP sequences were amplified from genomic DNA extracted from strain T222+ (CC-5101). Templates for codon-optimized HA-RAMP, RP, and R→K modified TP sequences were obtained by gene synthesis (Eurofins Genomics). Correct assembly was verified by sequencing (Eurofins Genomics). Linear transformation cassettes were generated through restriction digestion with EcoRV (New England Biolabs).
Constructs were transformed into wild-type strain T222+ (CC-5101) using a protocol described previously ([Onishi and Pringle, 2016]), except using 4 μl of DNA at 2 μg/μl.
Strains with suspected mitochondrial targeting were treated with 0.1 μM MitoTracker Red CMXRos (Thermo Fisher Scientific) in growth medium for 30 min in the dark and washed with TAP prior to taking images.
Legend for Fig. S3 – S20. Three independent transformant lines (Strains 1-3) are shown for each combination of modifications (A-L), represented by a cartoon and a shorthand description (cf. Fig.
2). Where a construct was interpreted as generating reporter localization in mitochondria or […]
Epifluorescence microscopy images of typical cells for each strain are shown. MitoTracker fluorescence, false-coloured in cyan, indicates the position of mitochondria (although parts of the cell exterior are sometimes also stained). False-coloured yellow fluorescence from the Venus channel reports on the subcellular localization of the fluorescent reporter. Chlorophyll autofluorescence, shown in magenta, indicates the location of the chloroplast. Scale bars are 5µm. Brightness (Br.) was adjusted for clarity: fluorescence intensity values were restricted to the range shown for each channel by matching coloured rectangles. Intensity scales to 0 at the bottom of the panel, and to 65535 at the top.
On the right-hand side, quantitative information associated with each construct is shown. Data was normalized such that averages range from 0 to 1 across all constructs (cf. Fig S2). Individual cell measurements may exceed this range; for clarity, the range shown here is limited to -0.5 to 1.5, with outliers that have more extreme values shown as lying beyond a dashed line. Strain 1 is plotted as circles, strain 2 as squares, and strain 3 as diamonds. Venus: Fluorescence plate reader data of transformants screened for this construct (Venus fluorescence, accounting for cell density using linear regression of OD750 and chlorophyll fluorescence trained on ‘no venus’ control transformants). Transformants that were not selected after screening are shown as small grey circles. A colour code ranging from white (low Venus fluorescence) to black (high Venus fluorescence) is used for strains 1-3 and the average thereof. Automated image quantification data: pyr/chl: Venus channel signal in the pyrenoid relative to in the chlorophyll region; mt/cell: Venus channel signal in mitochondria relative to the whole cell. Each point corresponds to a single cell.
The colour code code is the same as that below distributions in Fig. S2, i.e. blue highlights the […]
As for “MALWRTMLRRLGTMALHAGRAAFGAAADTISQSVRRAQLQVVASSRKQMGRWRSIDAGVDASDDQ [DDM.R.c]”, the Localisation result is “Neither”. Consider “MGLLLDTLRGAARDIAGIALERLRCRITGCRP [R2G.R]”, for which the Localisation result was “Mitochondria (partial)”.

For MQVTMKSSAVSGQRVGGARVATR [c.CH.R], the Localisation entry is given as “Neither”. Take “MQVTMKSSAVSGQRVMGWIRDFGRRIERVGQHTRDATIQTIAVAQQAANVAATLRG [c.S1D.R]”: the Localisation result was “Mitochondria”. For “MQVTMKSSAVSGQRVSFLTTFRDLAIRAARSAGQSVLSTLSCRLSNTC [c.B2I.R]”, the Localisation entry is recorded as “Mitochondria (partial)”. Consider “MQVTMKSSAVSGQRVDEVNNDNCRIRFRGDISSESDRMNINYLTQTAESFRGVSSQFFDAPNGPSVKQVLIEDEW [c.RP2.R.m]”, for which the Localisation entry was “Neither”. For the sequence “MLTQTAESFRGVSSQFFDAPNGPSVKQVLIEDEW [-.m]”, the Localisation result is recorded as “Neither”. In the case of “MQVTMKSSAVSGQRVMLKKVGQSLVPFAKAG [c.MH.K]”, the Localisation entry is “Neither”. “MQVTMKSSAVSGQRVGGARVATRLTQTAESFRGVSSQFFDAPNGPSVKQVLIEDEW [c.CH.R.m]”: the Localisation entry is reported as “Neither”. On to “MRYYGNGVSCNRRGCSVDWGRAIGIIGNNAAANLTTGGRAGWRG [EHF.R]”, for which the Localisation result is on record as “Neither”. Consider “MQVTMKSSAVSGQRVGRIPVRAIRRAGAAIGRGLRAINIASTAHDVYSFFRPRHRRRSVRRAQLQVVASSRKQMGRWRSIDAGVDASDDQ [c.SIM.R.c]”, for which the Localisation entry is listed as “Chloroplast”.

Staying with this test, now noted: peptide-Venus reporter construct expressed in Chlamydomonas reinhardtii; manual targeting assignment (Neither / Mitochondria / Chloroplast / Dual; partial = partial targeting).
Turning to “MQVTMKSSAVSGQRVMVNYGNGVSCSKTKCSVNWGIITHQAFRVTSGVASGLTQTAESFRGVSSQFFDAPNGPSVKQVLIEDEW [c.B15.K.m]”, the Localisation result is “Chloroplast”. Turning to “MALWMTLLRRVLRAAARAALNAVLVGANASVRRAQLQVVASSRKQMGRWRSIDAGVDASDDQ [DS4.R.c]”, the Localisation entry is “Neither”. On to “MQVTMKSSAVSGQRVMVNYGNGVSCSKTKCSVNWGIITHQAFRVTSGVASGSVRRAQLQVVASSRKQMGRWRSIDAGVDASDDQ [c.B15.K.c]”, for which the Localisation result is “Chloroplast”. Still for that read-out and setting: the same measure for “MKYYGNGVHCTKSGCSVNWGEAFSAGVHRLANGGNGFW [LCA.K]”: “Neither”; for “MWLSRTARRLENSARRRISEGIAIAIRGGSRLTQTAESFRGVSSQFFDAPNGPSVKQVLIEDEW [CP3.R.m]”: “Mitochondria”; for MWLSRTARRLENSARRRISEGIAIAIRGGSR [CP3.R]: “Mitochondria (partial)”. Consider “MGIGRFLHSARRFGRAFVGEIMNSSVRRAQLQVVASSRKQMGRWRSIDAGVDASDDQ [MII.R.c]”, for which the Localisation result was “Mitochondria”. Consider “MKYYGNGVHCTKSGCSVNWGEAFSAGVHRLANGGNGFWSVRRAQLQVVASSRKQMGRWRSIDAGVDASDDQ [LCA.K.c]”, for which the Localisation result was “Chloroplast (partial)”. In the case of “MQVTMKSSAVSGQRVMGLFSKFNKKKIKSGLIKIIKTAGKEAGLEALRTGIDVIGCKIKGECSVRRAQLQVVASSRKQMGRWRSIDAGVDASDDQ [c.E1S.K.c]”, the Localisation entry is listed as “Chloroplast”. Same read-out and setting: for “MKYYGNGVHCTRSGCSVNWGEAFSAGVHRLANGGNGFWSVRRAQLQVVASSRKQMGRWRSIDAGVDASDDQ [LCA.R.c]” the value was “Chloroplast (partial)”; for “MGLFSRFNRRRIRSGLIRIIRTAGREAGLEALRTGIDVIGCRIRGECLTQTAESFRGVSSQFFDAPNGPSVKQVLIEDEW [E1S.R.m]”, “Mitochondria (partial)”; for “MVNYGNGVSCSKTKCSVNWGIITHQAFRVTSGVASGLTQTAESFRGVSSQFFDAPNGPSVKQVLIEDEW [B15.K.m]”, “Neither”.

Turning to “MFLPLLAGLAANFLPKIFCKITRKCSVRRAQLQVVASSRKQMGRWRSIDAGVDASDDQ [B1E.K.c]”, the Localisation result was “Neither”.

As to “MQVTMKSSAVSGQRVALWMTLLRRVLRAAARAALNAVLVGANA [c.DS4.R]”, the Localisation entry is listed as “Neither”.

For “MKYYGNGVHCTKSGCSVNWGEAFSAGVHRLANGGNGFWLTQTAESFRGVSSQFFDAPNGPSVKQVLIEDEW [LCA.K.m]”, the Localisation entry is “Neither”. For MFLPLLAGLAANFLPKIFCKITRKC [B1E.K], the Localisation result is on record as “Neither”. Turning to MALWMTLLRRVLRAAARAALNAVLVGANA [DS4.R], the Localisation result is reported as “Neither”. As for “MQVTMKSSAVSGQRVMVNYGNGVSCSKTKCSVNWGIITHQAFRVTSGVASG [c.B15.K]”, the Localisation entry was “Neither”. Regarding “MWLSKTAKKLENSAKKRISEGIAIAIKGGSRSVRRAQLQVVASSRKQMGRWRSIDAGVDASDDQ [CP3.K.c]”, the Localisation entry was “Neither”.

The test is the same for the next values; noted with them: targeting of the Venus reporter fused to the peptide, expressed in Chlamydomonas reinhardtii; manual assignment from epifluorescence microscopy; full or partial.
“MQVTMKSSAVSGQRVMGLLLDTLKGAAKDIAGIALEKLKCKITGCKPSVRRAQLQVVASSRKQMGRWRSIDAGVDASDDQ [c.R2G.K.c]”: the Localisation result was “Mitochondria (partial)”. On the same count and under the same terms, for “MALWKTMLKKLGTMALHAGKAAFGAAADTISQ [DDM.K]” the value was “Neither”; for “MDEVNNDNCRIKFKGDISSESDKMNINYSVRRAQLQVVASSRKQMGRWRSIDAGVDASDDQ [RP2.K.c]”, “Neither”. On to “MQVTMKSSAVSGQRVAAAAAAAASVRRAQLQVVASSRKQMGRWRSIDAGVDASDDQ [c.AA.c]”, for which the Localisation entry is “Chloroplast (partial)”.

“MQVTMKSSAVSGQRVFLPLLAGLAANFLPKIFCKITRKC [c.B1E.K]”: the Localisation entry was “Mitochondria”. Same read-out and setting: the same measure for “MQVTMKSSAVSGQRVFLPLLAGLAANFLPRIFCRITRRCSVRRAQLQVVASSRKQMGRWRSIDAGVDASDDQ [c.B1E.R.c]”: “Chloroplast”. As to “MALWKTMLKKLGTMALHAGKAAFGAAADTISQSVRRAQLQVVASSRKQMGRWRSIDAGVDASDDQ [DDM.K.c]”, the Localisation result was “Neither”. In the case of “MGLLLDTLKGAAKDIAGIALEKLKCKITGCKPSVRRAQLQVVASSRKQMGRWRSIDAGVDASDDQ [R2G.K.c]”, the Localisation entry is reported as “Neither”. For “MQVTMKSSAVSGQRVALWMTLLRRVLRAAARAALNAVLVGANASVRRAQLQVVASSRKQMGRWRSIDAGVDASDDQ [c.DS4.R.c]”, the Localisation entry is reported as “Neither”. For the sequence “MQVTMKSSAVSGQRVMGKIPVKAIKKAGAAIGKGLRAINIASTAHDVYSFFKPKHKKKSVRRAQLQVVASSRKQMGRWRSIDAGVDASDDQ [c.SIM.K.c]”, the Localisation result was “Chloroplast”. As for “MQVTMKSSAVSGQRVMGKIPVKAIKKAGAAIGKGLRAINIASTAHDVYSFFKPKHKKKLTQTAESFRGVSSQFFDAPNGPSVKQVLIEDEW [c.SIM.K.m]”, the Localisation result is “Chloroplast”. Still for that read-out and setting: for “MQVTMKSSAVSGQRVMGWIRDFGKRIERVGQHTRDATIQTIAVAQQAANVAATLKGSVRRAQLQVVASSRKQMGRWRSIDAGVDASDDQ [c.S1D.K.c]” the value was “Chloroplast”.

On to “MALWMTLLRRVLRAAARAALNAVLVGANALTQTAESFRGVSSQFFDAPNGPSVKQVLIEDEW [DS4.R.m]”, for which the Localisation result is reported as “Neither”. Same read-out and setting: for “MGKIPVKAIKKAGAAIGKGLRAINIASTAHDVYSFFKPKHKKKSVRRAQLQVVASSRKQMGRWRSIDAGVDASDDQ [SIM.K.c]” the value was “Neither”. For MNIVVYWNFTLWHMDINARNAGCDGEGS [RP1.K], the Localisation entry is reported as “Neither”. In the case of “MQVTMKSSAVSGQRVMGLFSKFNKKKIKSGLIKIIKTAGKEAGLEALRTGIDVIGCKIKGEC [c.E1S.K]”, the Localisation entry is “Neither”. For “MKYYGNGVSCNKKGCSVDWGKAIGIIGNNAAANLTTGGKAGWKGLTQTAESFRGVSSQFFDAPNGPSVKQVLIEDEW [EHF.K.m]”, the Localisation result was “Neither”. On the same count and under the same terms, for “MQVTMKSSAVSGQRVGIGRFLHSARRFGRAFVGEIMNSSVRRAQLQVVASSRKQMGRWRSIDAGVDASDDQ [c.MII.R.c]” the value was “Chloroplast”. In the case of “MQVTMKSSAVSGQRVFLPLLAGLAANFLPKIFCKITRKCLTQTAESFRGVSSQFFDAPNGPSVKQVLIEDEW [c.B1E.K.m]”, the Localisation entry is listed as “Dual”.

For the origin of these results see article PMC10363480 (Plant Communications, 2023).
